Measured values as given in ChEMBL document CHEMBL2203104, “Recent advances in antitubercular natural products” (Eur J Med Chem, 2012).
Values after ≈ are worked out from the molar mass of the structure shown.

Tests used:
[1] = tested on: Mycobacterium tuberculosis; assay: Antimycobacterial activity against Mycobacterium tuberculosis H37Rv; assay type: functional; conditions: Mycobacterium tuberculosis, H37Rv; read-out: MIC
[2] = tested on: Mycobacterium tuberculosis; assay: Antimycobacterial activity against Mycobacterium tuberculosis H37Ra; assay type: functional

Compound	MIC [1]	MIC [2]
CCCCCCC1=C(O)CC(CCCCC)OC1=O (centres undefined) [PSEUDOPYRONINES A]	3.12 mg/L	–
C=C(C)C(=O)O[C@H]1C[C@@]2(C)OC(=CC2=O)C(=C)[C@@H](O)[C@H]2OC(=O)C(=C)[C@@H]21 [ISOGOIAZENSOLIDE]	–	1.5 mg/L (≈ 4.16 µM)
CC1(C)C=Cc2c(cc3oc(CO)cc(=O)c3c2O)O1 [GREVEICHROMENOL]	–	50 mg/L (≈ 182 µM)
CC(=O)[C@]1(O)C(C)=C(C)C(=O)[C@@]12CC[C@](C)(CCC[C@H](C)CCC[C@H](C)CCCC(C)C)O2	30 mg/L	–
CCOC(=O)/C=C/COc1ccc(/C=C/C(=O)/C=C(O)/C=C/c2ccc(OC/C=C/C(=O)OCC)c(OC)c2)cc1	7.18 mg/L	–
C=C(C)C(CC[C@@H](C)[C@H]1CC[C@@]2(C)[C@@H]3CC[C@H]4C(C)(C)[C@@H](O)CC[C@@]45C[C@@]35CC[C@]12C)OO (some centres undefined)	25 mg/L	–
O=C1C=C[C@@H](OC(=O)/C=C/c2ccccc2)[C@@H]([C@H]2O[C@@H]2c2ccccc2)O1 [HOWIININ A]	–	6.25 mg/L (≈ 17.2 µM)
[C-]#[N+][C@@]12CCC(=C)[C@H]3[C@H](CC(C)(C)NC(=O)CN4CCC4=O)C[C@H](C)[C@@H](CC[C@@H]1C)[C@@H]32 [MONAMPHILECTINE A]	15.3 mg/L	–
CCc1cc(C(N)=S)ccn1 [ETHIONAMIDE]	18 µM	–
Oc1ccc2c(c1)OC[C@H]1c3cc4c(cc3O[C@@H]21)OCO4 [MAACKIAIN]	–	50 mg/L (≈ 176 µM)
CC(=O)O[C@H]1C2=C(C(=O)C(O)=C(C(C)C)C2=O)[C@@]2(C)CCCC(C)(C)[C@@H]2[C@@H]1O	25 mg/L	–
COc1ccc2c(=O)c(OC)c(-c3ccc4c(c3)OCO4)oc2c1 [DEMETHOXYKANUGIN]	–	50 mg/L (≈ 153 µM)
CC(C)=CCc1c(O)ccc(C(=O)/C=C/c2ccc(O)cc2)c1O [ISOBAVACHALCONE]	18 mg/L	–
CCCCC/C=C/C=C/C(=O)N1CCCC1 [SARMENTINE]	–	50 mg/L (≈ 226 µM)
COc1cc(OC)c(-c2coc3cc(O)cc(O)c3c2=O)cc1O [DALPARVONE]	–	50 mg/L (≈ 151 µM)
O=C(CCCCCCCC[C@H]1C=CCC1)OCC(O)CO (some centres undefined) [ANTHELMINTHICINS B]	16.7 µM	–
COc1c(-c2ccc(O)cc2)oc2c3c(ccc2c1=O)OC(C)(C)[C@H](OC(C)=O)[C@@H]3OC(C)=O	–	25 mg/L (≈ 53.4 µM)
CSC1=C(CCNC(C)=O)c2nc3ccccc3c3ccnc(c23)C1=O [DIPLAMINE]	17 µM	–
C=C1C(=O)O[C@@H]2/C=C(/CO)C3=CC(=O)[C@@](C)(C[C@H](OC(=O)/C(C)=C\C)[C@@H]12)O3 [CENTRATHERIN]	–	3.1 mg/L (≈ 8.28 µM)
CC(=O)O[C@@H]1C[C@H]2C(C)(C)C(=O)C=C[C@]2(C)[C@H]2CC[C@@]3(C)[C@H](c4ccoc4)C(=O)[C@H]4O[C@]43[C@@]21C [EPOXYAZADIRADIONE]	–	25 mg/L (≈ 53.6 µM)
COc1c2ccoc2cc2oc(-c3ccccc3)cc(=O)c12 [PINNATIN]	–	12.5 mg/L (≈ 42.8 µM)
CC(C)=CCOc1ccc(C[C@@H]2NC(=O)[C@H](C(C)C)N(C)C(=O)[C@H](CO)NC(=O)[C@@H]3CCCN3C(=O)[C@@H](Cc3ccccc3)OC(=O)[C@H](C)N(C)C2=O)cc1 [PULLULARIN C]	–	50 mg/L (≈ 65.6 µM)
C=C(C)[C@@H]1CC[C@]2(C(=O)O)CC[C@]3(C)[C@H](CC[C@@H]4[C@@]5(C)CC[C@H](O)C(C)(C)[C@@H]5CC[C@]43C)[C@@H]12 [BETULINIC ACID]	–	25 mg/L (≈ 54.7 µM)
CC(=O)NCCc1c2c(c3nccc4c3c1Nc1ccccc1-4)NC(=O)CS2 [SHERMILAMINE B]	32 µM	–
c1cc[n+]2c(c1)CCCCCCCCCCCCC[n+]1cccc(c1)CCCCCCCCCCCCC2 [CYCLOSTELLETAMINES C]	4 mg/L	–
O=C(O)CCCCCCCCCC(=O)C1=CCCC1 [ANTHELMINTHICINS A]	5.54 µM	–
O=C1C2=C(C(=O)c3c(O)cccc31)[C@]1(O)C[C@H]2C(=O)c2c(O)cccc21 [ENGELHARQUINONE]	20 mg/L	–

Compound	MIC [1]	MIC [2]
COc1ccc2c(=O)c(OC)c(-c3ccccc3)oc2c1 [3,7-DIMETHOXYFLAVONE]	–	50 mg/L (≈ 177 µM)
C=C1C(=O)O[C@@H]2/C=C(/CO)C3=CC(=O)[C@@](C)(C[C@H](OC(=O)/C(C)=C/C)[C@@H]12)O3 [LYCHNOPHOROLIDE B]	–	6.2 mg/L (≈ 16.6 µM)
COc1cc2ccc(=O)oc2cc1O [SCOPOLETIN]	42 mg/L	–
COc1c2ccoc2nc2c3c(ccc12)OCO3 [KOKUSAGINE]	16 mg/L	–
COC1=CC(=O)c2c(cc(OC)c(C(C)C3=C(O)C(=O)c4cc(O)cc(O)c4C3=O)c2O)C1=O (centres undefined)	–	6.25 mg/L (≈ 13.4 µM)
CC(=O)O[C@@H]1C[C@H]2C(C)(C)C(=O)C=C[C@]2(C)[C@H]2CC[C@]3(C)C(=CC(=O)[C@H]3c3ccoc3)[C@@]21C [AZADIRADIONE]	–	6.25 mg/L (≈ 13.9 µM)
CCCCC/C=C/C=C/C(=O)NCC(C)C [PELLITORIN]	–	50 mg/L (≈ 224 µM)
CC1(C)Oc2cc(O)c(C(=O)/C=C/c3ccccc3)c(O)c2CC1O (centres undefined)	0.05 mg/L	–
C=C[C@]1(C)C2=C3c4c([nH]c5cccc(c45)C(C)(C)[C@H]3C[C@H]1Cl)C(C)(C)C(C#N)=C2 [AMBIGUINE G NITRILE]	53.7 µM	–
CC1(C)C=Cc2c(cc(O)c3c(=O)cc(CO)oc23)O1 [PERFORAMONE D]	–	25 mg/L (≈ 91.2 µM)
CCCC/C=C/C#CC#CC(C)CCCCCCC(=O)O (centres undefined)	–	25 mg/L (≈ 86.7 µM)
O=C(/C=C/CCCC/C=C/c1ccc2c(c1)OCO2)N1CCCC1 [BRACHYAMIDE B]	–	50 mg/L (≈ 153 µM)
O=c1cc(-c2ccccc2)oc2c1ccc1occc12 [LANCEOLATIN B]	–	50 mg/L (≈ 191 µM)
C/C(=C\CO)CCC[C@H](C)CCC[C@H](C)CCCC(C)C [TRANS-PHYTOL]	12.5 mg/L	–
COc1cc(/C=C/C(O)=C/C(=O)/C=C/c2ccc(O)cc2)ccc1O [DEMETHOXYCURCUMIN]	200 mg/L	–
COc1cc(-c2ccccc2)nc2ccccc12	16 mg/L	–
COc1cc2c(cc1OC)-c1c3c(cc4c1[C@@H](C2)NCC4)OCO3	–	12.5 mg/L (≈ 38.4 µM)
C=C(C)C(=O)O[C@H]1C[C@@]2(C)OC(=CC2=O)/C(CO)=C\[C@H]2OC(=O)C(=C)[C@H]12 [GOIAZENSOLIDE]	–	3.1 mg/L (≈ 8.6 µM)
c1cc2c[n+](c1)CCCCCCCCCCCCCCc1ccc[n+](c1)CCCCCCCCCCCCCC2 [CYCLOSTELLETAMINES F]	8 mg/L	–
O=C1CC[C@H](O)c2cc(O)cc(O)c21	–	12.5 mg/L (≈ 64.4 µM)
CC(C)=CCc1c(O)ccc(C(=O)/C=C/c2cc(O)c3c(c2)C=CC(C)(C)O3)c1O	30 mg/L	–
COc1cc(C)c(C(=O)Oc2cc(C)c(C(=O)O)c(O)c2C)c(OC)c1C [DIFFRACTAIC ACID]	15.6 mg/L	–
CC(C)C1=C(O)C(=O)C2=C(C1=O)[C@H](O)C[C@H]1C(C)(C)CCC[C@]21C [HORMINONE]	25 mg/L	–
COc1ccc(CC(O)C(O)Cc2ccccc2)cc1 (centres undefined)	30 mg/L	–
[C-]#[N+]C(C)(C)C[C@@H]1C[C@H](C)[C@H]2CC[C@H](C)[C@@]3([N+]#[C-])CCC(=C)[C@@H]1[C@H]23 [DIISOCYANOAMPHILECTENE]	2 mg/L	–
CC(=O)NCCc1c2c3c(ccnc3c3ncsc13)-c1ccccc1N2 [KUANONIAMINE D]	34 µM	–
O=C1c2scnc2-c2nccc3c2c1nc1ccccc13 [KUANONIAMINE A]	10.7 µM	–

Compound	MIC [1]	MIC [2]
C[C@H](C/C=C/C(C)(C)OO)[C@H]1CC[C@@]2(C)[C@@H]3CC[C@H]4C(C)(C)[C@@H](O)CC[C@@]45C[C@@]35CC[C@]12C	25 mg/L	–
CC(=O)[C@]1(O)C(C)=C(C)C(=O)[C@@]12CC[C@H](CCC[C@H](C)CCC[C@H](C)CCCC(C)C)O2	50 mg/L	–
c1cc2c[n+](c1)CCCCCCCCCCCCc1ccc[n+](c1)CCCCCCCCCCCC2 [CYCLOSTELLETAMINES A]	32 mg/L	–
O=C(O)CCCCCCCCCCCC[C@@H]1C=CCC1 [CHAULMOOGRIC ACID]	16.8 µM	–
NC1=N[C@@]23CCCN2C(=O)c2[nH]cc(Br)c2[C@@H]3N1 [MONOBROMOISOPHAKELLIN]	64 mg/L	–
COc1cc(-c2ccc3c(c2)OCO3)nc2ccccc12 [GRAVEOLININE]	16 mg/L	–
CC1=C(C)C(=O)C(CC[C@](C)(O)CCC[C@H](C)CCC[C@H](C)CCCC(C)C)=C(C)C1=O	25 mg/L	–
CC(C)=CCc1c(O)cc(O)c(C(=O)/C=C/c2ccccc2)c1O	0.05 mg/L	–
C/C=C(C)/C=C(\C)C(O)C(C)[C@H](O)[C@@H](O)[C@H]1C/C=C\C=C\[C@H](O)C[C@@H](O)[C@H](C)c2nc(cs2)/C=C(\CCCCCC)C(=O)O1 (some centres undefined) [THUGGACIN A]	8 mg/L	–
c1cc2c[n+](c1)CCCCCCCCCCCCCc1ccc[n+](c1)CCCCCCCCCCCC2 [CYCLOSTELLETAMINES B]	4 mg/L	–
O=C1c2c(O)ccnc2-c2nccc3c2c1nc1ccccc13	42 µM	–
Cl.Nc1ncc(C/C=C/NC(=O)c2cc(Br)c[nH]2)[nH]1 [HYMENIDINE]	6.1 mg/L	–
c1cc2c[n+](c1)CCCCCCCCCCCCCCc1ccc[n+](c1)CCCCCCCCCCCCC2 [CYCLOSTELLETAMINES E]	11 mg/L	–
COC1=CC(=O)c2c(O)cccc2C1=O	30 mg/L	–
CC(=O)NCCc1c2c(c3nccc4c3c1Nc1ccccc1-4)OCS2 [LISSOCLINIDINE]	17 µM	–
CC(C)C1=C(O)C(=O)C2=C(C1=O)[C@H](O)[C@@H](O)[C@H]1C(C)(C)CCC[C@]21C	25 mg/L	–
C/C=C(/NC(=O)c1csc(-c2csc(-c3ccc4c(n3)-c3csc(n3)C(C(C)(O)C(C)O)NC(=O)c3csc(n3)C(C(C)C)NC(=O)c3csc(n3)/C(=C/OC)NC(=O)C(C(C)O)NC(=O)c3csc-4n3)n2)n1)C(=O)OC (centres undefined) [NOCARDITHIOCIN]	0.025 mg/L	–
C=C(C)/C=C/[C@@]12C(=O)C=CC(=O)[C@@]13CC(C)=C[C@@H]2c1cc(O)ccc1O3 [EHRETIQUINONE]	25 mg/L	–
c1cc2c[n+](c1)CCCCCCCCCCCCCCc1ccc[n+](c1)CCCCCCCCCCCC2 [CYCLOSTELLETAMINES D]	8 mg/L	–
CSc1cnc2c3c(nc4ccccc4c13)C(CCNC(C)=O)=CC2=O [ISODIPLAMINE]	17 µM	–
CC(C)C1=C(O)C(=O)C2=C(C=C[C@H]3C(C)(C)CCC[C@]23C)C1=O	25 mg/L	–
C[C@@H]1C[C@H](C)C(=O)/C=C/C2[C@@H](O)C3OC4=C(C(=O)O[C@@]42C[C@H]3C)C1=O (single isomer, unassigned; (-))	7.2 µM	–
CCOC(=O)CCCCCCCCCCCC[C@@H]1C=CCC1 [ETHYL CHAULMOOGRATE]	9.82 µM	–
COC1=CC(=O)c2cccc(O)c2C1=O	3.12 mg/L	–
CC[C@H](CC[C@@H](C)[C@H]1CC[C@H]2[C@@H]3CC=C4CC(=O)CC[C@]4(C)[C@H]3CC[C@]12C)C(C)C [BETA-SITOSTENONE]	39.5 µM	–
